Structures can show the parent of a compound that is named as a salt.
Columns and labels:
[1] = system: OVCAR-3 cells; assay: In vitro cytotoxicity (anti-proliferative effect) with excess human β-glucuronidase, sulforhodamine B protein dye stain; type: cell-based; conditions: OVCAR-3, with β-glucuronidase
Protocol: (§1) The anti-proliferative effects of paclitaxel, and the prodrugs 1, 2a and 2b on OVCAR-3 cells were determined by measuring the cell growth with a protein dye stain (H. J. Haisma et al. Cell Biophysics 1994, 24/25, 185-192). Cells were seeded in 96-well tissue culture plates (5000 cells/well) and 24 h later (pro)drugs 1, 2a, 2b or 3 were added with or without excess human β-glucuronidase. After 72 hours the cells were fixed with 25% trichloroacetic acid, stained with 0.4% sulforhodamine B, washed with 1% acetic acid and air-dried. The bound dye was then solubilized with 10 mM Tris and the absorbance read at 492 nm. The antiproliferative effects were expressed as IC50 values, which are the (pro)drug concentrations that gave 50% growth inhibition when compared to control cell growth.

[2] = system: OVCAR-3 cells; assay: In vitro cytotoxicity (anti-proliferative effect) without β-glucuronidase, sulforhodamine B protein dye stain; type: cell-based; conditions: for ratio IC50 prodrug/IC50 paclitaxel: OVCAR-3, without β-glucuronidase; for cytotoxicity compared with parent drug paclitaxel: in words
Protocol: as §1

[3] = Stability assay in PBS buffer pH 6.8, 37° C., HPLC; type: physicochemical; conditions: for ratio of prodrug/paclitaxel: PBS pH=6.8, 37° C., HPLC peak areas; for stability in PBS buffer: in words, PBS pH=6.8
Protocol: The prodrugs in examples 1 and 2b were all stable in PBS buffer (PBS buffer=NaCl (8 g/L), KCl (0.2 g/L), Na2 HPO4 (1.15 g/L), KH2 PO4 (0.2 g/L), pH=6.8, see example 4 and 5).
To 3.0 mL PBS buffer, pH=6.8, was added 0.37 mg of prodrug 2b (0.30 μmol). The mixture was placed in a water bath of 37° C. […] The ratios are based on peak areas.
In 1.1 mL PBS buffer, pH=6.8, was dissolved 0.13 mg of prodrug 2a (0.11 μmol) and placed in a water bath of 37° C. […] The ratios are based on peak areas.

[4] = Solubility in water; type: physicochemical; conditions: for solubility in water compared with parent drug paclitaxel: in words; for solubility: water, read-out: Concentrations reached in water
Protocol: Concentrations of 10 mM in water and higher were reached whereas the solubility of paclitaxel is lower as […] in water (K. C. Nicolaou et al., Nature, 1993, 364, 464-466).

[5] = target: T1, human β-glucuronidase (Homo sapiens, UniProt P08236); assay: Enzyme catalyzed hydrolysis of prodrug by human β-glucuronidase, HPLC; type: biochemical; conditions: for ratio prodrug/paclitaxel: 37° C., pH=6.8, HPLC peak areas; for intermediates (spacer attached to paclitaxel, compounds 5 and 7b) during enzyme catalyzed hydrolysis / enzymatic hydrolysis rate / paclitaxel found in experiment without human β-glucuronidase: in words; for enzymatic hydrolysis rate: appropriate enzyme; for paclitaxel found in experiment without human β-glucuronidase: no enzyme, PBS pH=6.8, 37° C., up to 180 min; for half life of hydrolysis by β-glucuronidase: prodrug 100 μM, enzyme 10 μg mL^-1
T1 construct: lysosomal homotetramer
T1 sequence (P08236 23-651): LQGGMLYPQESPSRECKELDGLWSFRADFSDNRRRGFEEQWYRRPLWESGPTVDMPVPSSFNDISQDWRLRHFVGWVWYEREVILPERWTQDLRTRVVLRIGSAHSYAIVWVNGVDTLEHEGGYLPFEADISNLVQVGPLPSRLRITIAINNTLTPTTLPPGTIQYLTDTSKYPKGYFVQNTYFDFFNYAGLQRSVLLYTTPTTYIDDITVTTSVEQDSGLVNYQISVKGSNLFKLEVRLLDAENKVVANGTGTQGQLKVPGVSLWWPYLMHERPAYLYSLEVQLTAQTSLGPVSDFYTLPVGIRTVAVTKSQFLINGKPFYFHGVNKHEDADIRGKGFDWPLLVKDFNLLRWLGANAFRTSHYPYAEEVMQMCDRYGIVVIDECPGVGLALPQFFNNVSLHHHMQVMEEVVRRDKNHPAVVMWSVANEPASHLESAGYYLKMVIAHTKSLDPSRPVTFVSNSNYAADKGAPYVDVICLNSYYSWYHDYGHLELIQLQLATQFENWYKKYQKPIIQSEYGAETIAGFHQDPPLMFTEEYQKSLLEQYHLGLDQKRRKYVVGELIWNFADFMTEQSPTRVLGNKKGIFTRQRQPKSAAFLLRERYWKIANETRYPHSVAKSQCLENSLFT
Protocol: To 140 μL PBS buffer (pH=6.8) was added 20 μL of a 1 mM solution of prodrug 1 in PBS buffer (pH=6.8) and 20 μL of 1% bovine serum albumin also in PBS buffer (pH=6.8). After incubation of the mixture for 10 min. at 37° C. 20 μL of a solution of 0.1 mg mL^-1 human β-glucuronidase (H. J. Haisma, Hybridoma, in press) was added. Directly after the addition of the enzyme to the reaction mixture an aliquot of 10 μL was taken and diluted with 90 μL cold acetonitrile (-20° C.) in order to stop the enzyme reaction. The reaction mixture was incubated for 3 hr at 37° C. and samples were taken at 15, 30, 45, 60, 90, 120 and 180 min. All samples were quenched by dilution with cold acetonitrile (-20° C.). […] In the later experiment also samples of 10 μL were taken at 0, 15, 30, 45, 60, 90, 120 and 180 min and were also diluted with cold acetonitrile (-20° C.). The samples of both experiments were analyzed by HPLC (C^18 reverse phase column, eluent: gradient of 10% acetonitrile in water to 90% acetonitrile in water, detection at 226 nm). The ratio of prodrug 1 to paclitaxel as shown in table 1 is determined by measuring the peak areas of the appropriate signals. […] All experiments were carried out in duplo.
20 μL of 1 mM solution of prodrug 2b in PBS buffer (pH=6.8) and 20 μL 1% bovine serum albumin also in PBS buffer (pH=6.8) was added to 140 μL PBS buffer (pH=6.8). Subsequently, the mixture was incubated for 10 min. at 37° C. whereafter 20 μL of a solution of 0.1 mg mL^-1 human β-glucuronidase (H. J. Haisma, Hybridoma, in press) was added and the reaction mixture was incubated at 37° C. Samples were taken and quenched at 0, 15, 30, 45, 60, 90, 120 and 180 min as described above for the enzyme assay of prodrug 1. In order to determine that the hydrolysis was caused by β-glucuronidase, another experiment was carried out without addition of β-glucuronidase as described above in example 7. The samples were analyzed as described for example 7 (vide supra). The ratios presented in table 2, are based on peak areas of the appropriate signals. […] All experiment were carried out in duplo.

[6] = K. C. Nicolaou et al., Nature, 1993, 364, 464-466; cited from earlier work

| Structure (SMILES) | ratio IC50 activated prodrug with β-glucronidase/IC50 paclitaxel [1] | ratio IC50 prodrug/IC50 paclitaxel [2] | cytotoxicity compared with parent drug paclitaxel [2] | stability in PBS buffer [3] | solubility in water compared with parent drug paclitaxel [4] | solubility [4] | ratio of prodrug/paclitaxel ([3]; 48 hr) | ratio prodrug/paclitaxel ([5]; 0 min) | ratio prodrug/paclitaxel ([5]; 15 min) | ratio prodrug/paclitaxel ([5]; 30 min) | ratio prodrug/paclitaxel ([5]; 45 min) | ratio prodrug/paclitaxel ([5]; 60 min) | ratio prodrug/paclitaxel ([5]; 90 min) | ratio prodrug/paclitaxel ([5]; 120 min) | ratio prodrug/paclitaxel ([5]; 180 min) | intermediates (spacer attached to paclitaxel, compounds 5 and 7b) during enzyme catalyzed hydrolysis [5] | enzymatic hydrolysis rate [5] | paclitaxel found in experiment without human β-glucuronidase [5] | half life of hydrolysis by β-glucuronidase [5] | further results |
| --- | --- | --- | --- | --- | --- | --- | --- | --- | --- | --- | --- | --- | --- | --- | --- | --- | --- | --- | --- | --- |
| CC(=O)O[C@H]1C(=O)[C@@]2(C)[C@H]([C@H](OC(=O)c3ccccc3)[C@]3(O)C[C@H](OC(=O)[C@H](OC(=O)Cc4ccccc4NC(=O)O[C@@H]4O[C@H](C(=O)O)[C@@H](O)[C@H](O)[C@H]4O)[C@@H](NC(=O)c4ccccc4)c4ccccc4)C(C)=C1C3(C)C)[C@]1(OC(C)=O)CO[C@@H]1C[C@@H]2O [Prodrug 2a, N-[paclitaxel-2'-O-(2-amino) phenylacetate]-O-[β-glucuronyl] carbamate sodium salt] | 1 | 1 | about as cytotoxic as paclitaxel | not stable | far more better soluble in water as the parent drug paclitaxel | ≥ 10 mM |  |  |  |  |  |  |  |  |  |  |  |  |  | ratio of prodrug/paclitaxel ([3]; 3 hr): 55/45; ratio of prodrug/paclitaxel ([3]; 22 hr): 1/99; half-life ([3]; pbs buffer, pH 6.8, read-out: half time of decomposition to paclitaxel (converted)): 3 h |
| CC(=O)O[C@H]1C(=O)[C@@]2(C)[C@H]([C@H](OC(=O)c3ccccc3)[C@]3(O)C[C@H](OC(=O)[C@H](OC(=O)CCc4ccccc4NC(=O)O[C@@H]4O[C@H](C(=O)O)[C@@H](O)[C@H](O)[C@H]4O)[C@@H](NC(=O)c4ccccc4)c4ccccc4)C(C)=C1C3(C)C)[C@]1(OC(C)=O)CO[C@@H]1C[C@@H]2O [Prodrug 2b, N-[paclitaxel-2'-O-(2-amino)phenylpropionate]-O-[β-glucuronyl] carbamate sodium salt] | 5 | 122 | less cytotoxic as the parent drug | stable | far more better soluble in water as the parent drug paclitaxel | ≥ 10 mM | 92/8 | 99/1 | 87/13 | 74/26 | 55/45 | 41/59 | 24/76 | 20/80 | 15/85 | no intermediates | quite fast hydrolyzing rates | no paclitaxel was found | about 45 min | ratio of prodrug/paclitaxel ([3]; 66 hr): 89/11 |
| CC(=O)O[C@H]1C(=O)[C@@]2(C)[C@H]([C@H](OC(=O)c3ccccc3)[C@]3(O)C[C@H](OC(=O)[C@H](OC(=O)CC(C)(C)CNC(=O)O[C@@H]4O[C@H](C(=O)O)[C@@H](O)[C@H](O)[C@H]4O)[C@@H](NC(=O)c4ccccc4)c4ccccc4)C(C)=C1C3(C)C)[C@]1(OC(C)=O)CO[C@@H]1C[C@@H]2O [Prodrug 1, N-[paclitaxel-2'-O-3,3-dimethyl butanoate]-O-[β-glucuronyl] carbamate sodium salt] | 3 | 90 | less cytotoxic as the parent drug | stable | far more better soluble in water as the parent drug paclitaxel | ≥ 10 mM | 92/8 | 99/1 | 95/5 | 93/7 | 87/13 | 78/22 | 61/39 | 43/57 | 33/67 | no intermediates | quite fast hydrolyzing rates | no paclitaxel was found | about 2 hr |  |
| CC(=O)O[C@H]1C(=O)[C@@]2(C)[C@H]([C@H](OC(=O)c3ccccc3)[C@]3(O)C[C@H](OC(=O)[C@H](O)[C@@H](NC(=O)c4ccccc4)c4ccccc4)C(C)=C1C3(C)C)[C@]1(OC(C)=O)CO[C@@H]1C[C@@H]2O [paclitaxel] |  |  |  |  |  |  |  |  |  |  |  |  |  |  |  |  |  |  |  | solubility in water [6]: < 5 nM |

Source: patent US5760072A, “Paclitaxel prodrugs, method for preparation as well as their use in selective chemotherapy” (Pharmachemie B.V., priority 1995, dated 1998)
